From patent publication US7485646B2, “Serotonin 5-HT3 receptor agonist” (Research Foundation Itsuu Laboratory, priority 2004, dated 2009)
Several values for one entry are separate records, joined by “and”; a condition that tells them apart may be missing. Identical values can stand only once. Values belong to the compound of their own block, whether it stands above or below them.

Assays:
serotonin 5-HT3 receptor [1] = target: T1, serotonin 5-HT3 receptor (Homo sapiens, UniProt P46098); experiment: Serotonin 5-HT3 receptor binding affinity ([3H]-GR-65630 binding inhibition); conditions: 1 μM test compound, membrane fraction from HEK-293 cells; for inhibition at 1 µM: read-out: [3H]-GR65630 binding inhibition rate at 1 μM
T1 construct: expressed in transfected cells; host or cells: HEK-293 cells (membrane fraction)
T1 sequence (P46098 24-478): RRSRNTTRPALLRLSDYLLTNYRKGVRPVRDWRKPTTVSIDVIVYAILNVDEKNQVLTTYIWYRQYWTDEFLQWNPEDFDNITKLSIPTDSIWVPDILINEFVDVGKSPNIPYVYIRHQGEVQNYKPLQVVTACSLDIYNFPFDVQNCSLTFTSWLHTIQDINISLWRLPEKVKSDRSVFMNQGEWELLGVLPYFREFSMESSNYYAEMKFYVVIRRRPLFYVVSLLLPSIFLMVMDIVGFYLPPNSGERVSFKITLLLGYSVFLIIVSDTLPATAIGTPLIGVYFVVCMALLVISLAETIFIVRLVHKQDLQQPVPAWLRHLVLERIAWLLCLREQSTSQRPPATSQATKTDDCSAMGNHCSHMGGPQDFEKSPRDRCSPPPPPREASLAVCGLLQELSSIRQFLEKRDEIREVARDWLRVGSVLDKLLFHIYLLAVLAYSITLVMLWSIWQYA
Experimental: Serotonin 5-HT3 receptor binding affinities of the urea derivatives of the present invention and typical compounds among known urea derivatives, N-phenyl-4-methylpiperazine-1-carboxyamide (A), N-(4,5-dichlorophenyl)-4-methylppiperazine-1-carboxyamide (B), N-(3,5-trifluoromethylphenyl)-4-methylpiperazine-1-carboxyamide (C), N-(3-fluorophenyl)-4-methylpiperazine-1-carboxyamide (D) and N-(5-chloro-2-methoxyphenyl)-(4-tert-butyloxycarbonylpiperazine)-1-carboxyamide (E), were determined by the following method, and the results are shown in Table 1. The test compounds of the present invention are mentioned with the example numbers.
According to the method of Boess et al. (Neuropharmacology, 36, 637-647, 1997), affinities were examined by using a membrane fraction obtained from HEK-293 cells and a ligand selective to the serotonin 5-HT3 receptor, [3H]-GR-65630 [3-(5-methyl-1H-imidazol-4-yl)-1-(1-methyl-1H-indol-3-yl)-1-propanone] on the basis of inhibitory actions of the test compounds on the specific binding to GR-65630 as an index.

serotonin 5-HT3 receptor [2] = target: T2, serotonin 5-HT3 receptor (Cavia porcellus, UniProt O70212); experiment: Test for serotonin 5-HT3 receptor partially activating action (guinea pig ileum longitudinal muscle contraction); parameters: species or system Hartley guinea pigs; conditions: for Activating action: guinea pig ileum contraction relative to 2.6 μM serotonin 5-HT; for Antagonistic action: suppression rate of serotonin 5-HT-induced contraction, guinea pig ileum
T2 construct: longitudinal muscle samples were prepared from the ileums of male or female Hartley guinea pigs; from tissue; host or cells: guinea pig ileum longitudinal muscle
T2 sequence (O70212 20-490): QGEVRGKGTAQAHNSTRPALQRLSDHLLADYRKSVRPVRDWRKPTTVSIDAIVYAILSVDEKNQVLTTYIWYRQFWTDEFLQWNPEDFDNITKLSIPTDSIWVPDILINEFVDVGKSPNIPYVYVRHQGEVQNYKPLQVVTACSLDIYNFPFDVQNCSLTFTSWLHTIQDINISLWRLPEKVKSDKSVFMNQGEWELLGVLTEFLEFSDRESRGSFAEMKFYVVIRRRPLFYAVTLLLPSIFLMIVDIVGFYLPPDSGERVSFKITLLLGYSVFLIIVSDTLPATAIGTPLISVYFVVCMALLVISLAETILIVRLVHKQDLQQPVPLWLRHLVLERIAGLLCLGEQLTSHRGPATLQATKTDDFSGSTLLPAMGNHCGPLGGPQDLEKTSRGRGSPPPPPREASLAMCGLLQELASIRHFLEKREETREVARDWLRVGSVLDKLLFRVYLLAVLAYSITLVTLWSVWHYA
Experimental: The serotonin 5-HT3 receptor antagonistic action and the serotonin 5-HT3 receptor activating action of 1-(2-hydroxyethyl)-1-methyl-4-(3,5-dichlorophenylcarbamoyl)piperazinium iodide as the compound of the present invention were determined according to the method of Butler et al. (Br. J. Pharmacol, 94, 397-412, 1988).
About 30-mm longitudinal muscle samples were prepared from the ileums of male or female Hartley guinea pigs (325±25 g). Each sample was hung down in a Magnus tube filled with 10 ml of Krebs solution (pH 7.4, 32° C.) with ventilation of a mixed gas (95% O2, 5% CO2), and loaded with a tension of 1 g, and contractile responses were measured isometrically. The serotonin 5-HT3 receptor activating action of the test compound was represented in terms of a relative value obtained by comparison of the contraction obtained by adding 2.6 μM of serotonin 5-HT to the sample and the contraction of 50% or more obtained within 5 minutes as a percentage based on the maximum contraction. The serotonin 5-HT3 receptor antagonistic action of the test compound was obtained from the contraction suppression rate obtained by adding serotonin 5-HT to the sample.

[3] = system: cisplatin-induced emesis in beagles; experiment: Antiemetic action on cisplatin-induced emesis in dogs; type: in vivo; conditions: for Number of emesis 0 to 120 (minute) / Number of emesis 121 to 360 (minute) / Time of initial occurrence: 0.5 mg/kg i.v. 30 minutes before cisplatin 3 mg/kg i.v., one value per animal
Experimental: Actions on cisplatin-induced emesis in beagles of 1-(2-hydroxyethyl)-1-methyl-4-(3,5-dichlorophenylcarbamoyl)piperazinium bromide as the compound of the present invention and 5-chloro-2-(1-homopiperazinyl)-7-methylbenzooxazole (F) (International Publication WO00/31073), which is a benzoxazole derivative having a chemical structure similar to that of the novel urea derivative of the present invention among the known serotonin 5-HT3 receptor partially activating agents, were determined by the following method. The compound of the present invention is mentioned with the example number.
After starvation for 16 hours from one day before the day of the test, beagles (each group consisted of two dogs) were given 300 g of feed pellets and intravenously received cisplatin at a dose of 3 mg/kg 30 minutes later. The test compound was intravenously given 30 minutes before the administration of cisplatin, and frequency and time of emesis were monitored over 6 hours.

Compound: C[N+]1(C)CCN(C(=O)Nc2cc(Cl)cc(Cl)c2)CC1 [Example 9, 1,1-Dimethyl-4-(3,5-dichlorophenylcarbamoyl)piperazinium iodide]
inhibition at 1 µM (serotonin 5-HT3 receptor [1]): 104%

Compound: C[N+]1(CC2CC2)CCN(C(=O)Nc2cc(Cl)cc(Cl)c2)CC1 [Example 13, 1-Cyclopropylmethyl-1-methyl-4-(3,5-dichlorophenylcarbamoyl)-piperazinium bromide]
inhibition at 1 µM (serotonin 5-HT3 receptor [1]): 98%

Compound: COc1ccc(Cl)cc1NC(=O)N1CC[N+](C)(C)CC1 [Example 19, 1,1-Dimethyl-4-(2-methoxy-5-chlorophenylcarbamoyl)piperazinium iodide]
inhibition at 1 µM (serotonin 5-HT3 receptor [1]): 94%

Compound: C=CC[N+]1(C)CCN(C(=O)Nc2cc(Cl)ccc2OC)CC1 [Example 20, 1-Allyl-1-methyl-4-(2-methoxy-5-chlorophenylcarbamoyl)piperazinium iodide]
inhibition at 1 µM (serotonin 5-HT3 receptor [1]): 92%

Compound: COc1ccc(Cl)cc1NC(=O)N1CC[N+](C)(CCO)CC1 [Example 21, 1-(2-Hydroxyethyl)-1-methyl-4-(2-methoxy-5-chlorophenylcarbamoyl)-piperazinium iodide]
inhibition at 1 µM (serotonin 5-HT3 receptor [1]): 98%

Compound: C[N+]1(CCO)CCN(C(=O)Nc2cc(Cl)cc(Cl)c2)CC1.[Br-] [Example 30, 1-(2-Hydroxyethyl)-1-methyl-4-(3,5-dichlorophenylcarbamoyl)-piperazinium bromide]
Emesis at the initial stage of administration (action on the central nerve system) [3]: no emesis was observed at the initial stage
Suppression of cisplatin-induced emesis in dogs (in words) [3]: effectively suppressed
Number of emesis 0 to 120 (minute) [3]: 0
Number of emesis 121 to 360 (minute) [3]: 1 and 0
Time of initial occurrence [3]: 165 min

Compound: Cc1cc(Cl)cc2nc(N3CCCNCC3)oc12 [F, 5-chloro-2-(1-homopiperazinyl)-7-methylbenzooxazole, reference compound]
Time at which emesis occurred after the administration [3]: ≤ 90 min
Number of emesis 0 to 120 (minute) [3]: 14 and 8
Number of emesis 121 to 360 (minute) [3]: 15 and 6
Time of initial occurrence [3]: 88 min and 79 min

Continued, in another order:

[3H]-GR65630 binding inhibition rate at 1 μM (serotonin 5-HT3 receptor [1]): 22%
Compound: CN1CCN(C(=O)Nc2ccc(Cl)c(Cl)c2)CC1 [B, N-(4,5-dichlorophenyl)-4-methylppiperazine-1-carboxyamide, reference compound]

[3H]-GR65630 binding inhibition rate at 1 μM (serotonin 5-HT3 receptor [1]): 2%
Compound: CN1CCN(C(=O)Nc2cc(C(F)(F)F)cc(C(F)(F)F)c2)CC1 [C, N-(3,5-trifluoromethylphenyl)-4-methylpiperazine-1-carboxyamide, reference compound]

[3H]-GR65630 binding inhibition rate at 1 μM (serotonin 5-HT3 receptor [1]): 5%
Compound: COc1ccc(Cl)cc1NC(=O)N1CCN(C(=O)OC(C)(C)C)CC1 [E, N-(5-chloro-2-methoxyphenyl)-(4-tert-butyloxycarbonylpiperazine)-1-carboxyamide, reference compound]

inhibition at 1 µM (serotonin 5-HT3 receptor [1]): 105%
Compound: C=CC[N+]1(C)CCN(C(=O)Nc2cc(Cl)cc(Cl)c2)CC1 [Example 10, 1-Allyl-1-methyl-4-(3,5-dichlorophenylcarbamoyl)piperazinium iodide]

inhibition at 1 µM (serotonin 5-HT3 receptor [1]): 104%
Activating action (serotonin 5-HT3 receptor [2]; 1 μM): 0%
Antagonistic action (serotonin 5-HT3 receptor [2]; 1 μM): 15%
Activating action (serotonin 5-HT3 receptor [2]; 3 μM): 4%
Antagonistic action (serotonin 5-HT3 receptor [2]; 3 μM): 30%
Activating action (serotonin 5-HT3 receptor [2]; 10 μM): 14%
Antagonistic action (serotonin 5-HT3 receptor [2]; 10 μM): 37%
Activating action (serotonin 5-HT3 receptor [2]; 30 μM): 31%
Antagonistic action (serotonin 5-HT3 receptor [2]; 30 μM): 27%
Activating action (serotonin 5-HT3 receptor [2]; 100 μM): 23%
Antagonistic action (serotonin 5-HT3 receptor [2]; 100 μM): 36%
Compound: C[N+]1(CCO)CCN(C(=O)Nc2cc(Cl)cc(Cl)c2)CC1.[I-] [Example 11, 1-(2-Hydroxyethyl)-1-methyl-4-(3,5-dichlorophenylcarbamoyl)-piperazinium iodide]
Serotonin 5-HT3 receptor agonist character (in words) (serotonin 5-HT3 receptor [2]; Table 2): having both the serotonin 5-HT3 receptor antagonistic action and the serotonin 5-HT3 receptor activating action

inhibition at 1 µM (serotonin 5-HT3 receptor [1]): 98%
Compound: CCC[N+]1(C)CCN(C(=O)Nc2cc(Cl)cc(Cl)c2)CC1 [Example 12, 1-Propyl-1-methyl-4-(3,5-dichlorophenylcarbamoyl)piperazinium bromide]

inhibition at 1 µM (serotonin 5-HT3 receptor [1]): 96%
Compound: C[N+]1(Cc2ccccc2)CCN(C(=O)Nc2cc(Cl)cc(Cl)c2)CC1 [Example 14, 1-Benzyl-1-methyl-4-(3,5-dichlorophenylcarbamoyl)piperazinium bromide]
